{
  "source": "patent US7371555B2",
  "about": "“Polypeptides having α-H-α-amino acid amide racemase activity and nucleic acids encoding the same” (DSM IP Assets B.V., priority 2002, dated 2008)",
  "key": {"[1]": {"system": "E. coli clone containing the O. anthropi IA α-H-α-amino acid amide racemase gene (pOa(1)PLV49B10)", "assay": "Confirmation of potential positive clone of the O. anthropi IA gene library", "format": "cell-based, Ochrobactrum anthropi IA", "conditions": "70 mM substrate, 20 h at 30° C.", "description": "(§1) Of all 32 potential positive clones identified in the screening, material from the masterplates was used to inoculate 3 ml of liquid screening medium containing 50 mg/l kanamycin. After growth for 2 days at 30° C., cells were collected by centrifuging 2 ml of these cell cultures. Then the cell pellets were washed four times in 25 mM Tris-HCl buffer, pH 7.5. Subsequently, the cell pellets were resuspended in 100 μl substrate solution containing 70 mM of D-phenylalanine amide, or D-leucine amide, or D-valine amide in 50 mM Tris-HCl, pH 7.5 and 1 mM MnCl2. After incubation for 20 h at 30° C., the reactions were stopped by the addition of 100 μl of 0.15 M HCl, after which the reaction mixtures were analyzed by the HPLC method described in Example 1.\nThis clone contained the O. anthropi IA α-H-α-amino acid amide racemase gene on its 7.7 kb plasmid. This was concluded from the fact that transformation of this plasmid into E. coli TOP10 cells inevitably led to recombinant cells that converted D-leucine amide into L-Leucine. […] The sequence of this gene is listed as nucleotides 98 to 1417 (including the TAA stopcodon) of SEQ ID NO:1 encoding the protein of SEQ ID: NO. 2 as presented infra."}, "[2]": {"assay": "Stability of substrate in chemical blanks (HEPES-NaOH buffer without cells)", "format": "physicochemical", "conditions": "HEPES-NaOH buffer pH 7.7, 139 hours, concentration constant (0.7 w/w %)", "description": "1 ml Of disintegrated cells of each of the three strains was incubated in a HEPES-NaOH buffer (20 mM) pH 7.7, to which pyridoxal-5-phosphate (0.01 mM) was added as a cofactor and D-leucine amide (60.8 mM) as a substrate in a total volume of 10 ml (0.79 w/w % D-leucine amide). After 0 and 139 hours 1 ml samples were taken (of which the exact weight was measured) and the reaction in these samples was stopped by adding 1 ml methanol (of which the exact weight was measured too; to be able to calculate dilution factors). Stopped reaction mixtures were centrifuged to remove particulates. The supernatants were frozen at −86° C. until HPLC analysis according to the method given in Example 1. […]\nFrom the table it can be seen that α-H-α-amino acid amide racemase activity is present in the disintegrated cells of Agrobacterium rhizogenes Na, Agrobacterium rhizogenes Bi and Arthrobacter nicotianae as D-leucine amide is converted into L-leucine; this conversion is not detected in the chemical blanks. In the chemical blanks no D-leucine or L-leucine could be detected even after 139 hours; the D-leucine amide concentration was constant (0.7 w/w %) meaning that D-leucine amide is very stable under the applied reaction conditions."}, "[3]": {"system": "E. coli clones with plasmid encoded A. nicotianae NCIMB 41126 α-H-α-amino acid amide racemase activity", "assay": "Confirmation of potential positive clones of the A. nicotianae NCIMB 41126 gene library", "format": "cell-based, Arthrobacter nicotianae NCIMB 41126", "conditions": "70 mM substrate, 10 μM pyridoxal-5-phosphate, 20 h at 30° C.", "description": "as §1\nConfirmation of both potential positive clones was done according to the protocol given in Example 3, with the exception that all 3 substrate solutions used contained 10 μM of pyridoxal-5-phosphate."}, "[4]": {"system": "α-H-α-amino acid amide racemase from Arthrobacter nicotianae NCIMB 41126", "assay": "Substrate specificity, CFE from E. coli DH10B/pAn(1)PLV36D06 (Example 9)", "format": "biochemical", "conditions": "relative to the activity towards D-leucine amide; 75 mM substrate, pH 8.0, 37° C.", "description": "Preparation of the CFE of E. coli DH10B/pAn(1)PLV36D06 was performed as described in Example 7 for E. coli TOP10/pKEC_AZAR—3\nBefore applying the CFE from E. coli DH10B/pAn(1)PLV36D06 in the reactions with different enantiomerically pure α-H-α-amino acid amides to determine the substrate specificity of the A. nicotianae α-H-α-amino acid amide racemase, the E. coli amidases/aminopeptidases in this CFE were inhibited by a pre-treatment with an inhibitor cocktail. One tablet of Complete Mini Protease Inhibitor Cocktail (Roche Applied Science, Mannheim, Germany) was dissolved in 9 ml of the CFE followed by an incubation of 1 hour at room temperature. Next, reaction mixtures of 10 ml each (including the CFE) were prepared containing 50 mM HEPES-NaOH, pH 8.0, 20 μM pyridoxal-5-phosphate, 0.4 mg/ml BSA, 1 mM dithiothreitol and 75 mM of one of the amino acid amides tested. Reactions were started by the addition of 1 ml of the pre-treated CFE of E. coli DH10B/pAn(1)PLV36D06 or E. coli TOP10/pBAD/Myc-HisC (blank) and were incubated at 37° C. At regular time intervals samples of 1 ml were taken and transferred to vials containing 1 ml of 1M H3PO4 to stop the reaction. After sufficient dilution of the samples in 0.4 M borate buffer pH 9.4, the mixtures obtained were analyzed using HPLC to determine the exact concentrations of the two amino acid and two amino acid amide enantiomers according to the method of Example 7."}},
  "data": [
    {"smiles": "CC(C)C[C@@H](N)C(N)=O", "note": "[D-leucine amide]", "values": [
      {"measurement": "formation of L-leucine from D-leucine amide", "setting": "[1]", "result": "significant formation of L-leucine"},
      {"measurement": "stability under the applied reaction conditions", "setting": "[2]", "result": "very stable"},
      {"measurement": "conversion of D-amide into L-acid", "setting": "[3]", "result": "significantly converted"},
      {"measurement": "Rel. initial activity", "setting": "[4]", "result": 100, "unit": "%"}
    ]}
  ]
}
